# Results: patent publication US20050250821A1, “Quaternary ammonium compounds in the treatment of water and as antimicrobial wash” (priority 2004, published 2005)
# Experiments:
# [1] = tested on: Salmonella Enteritidis (ATCC 13076); assay: microbe, parasite or virus in culture; details: Salmonella enterica, ATCC13076|ENTERITIDIS, 24 h, read-out: Minimum Inhibitory Concentration (MIC)
# Method: A Petroff Hausser counting chamber was used to determine the level of inoculum.
# An Optimax microtiter plate reader (Molecular Devices, Sunnyvale, Calif.) at 405 nm wavelength was used to measure the optical density of the suspension in each well. Plates were read kinetically over 24 h. The temperature was maintained at 35° C. All results reflect the average optical density measurements of four microtiter wells. […] A 100 μl aliquot of test organism and a 100 μl aliquot of experimental treatment were dispensed into individual microtiter plate wells.
# [2] = tested on: Staphylococcus aureus (ATCC 25923); assay: Microtiter plate assay, CPC and propionic acid, 4×4 matrix (Experiment 2); assay type: cell-based; details: S. aureus
# Method: (§1) The 4×4 matrix was either used in its entirety or in an abbreviated format as deemed appropriate by previous research conducted with similar organisms using a mixed organic acid blend.
# (§2) Fifteen formulations were prepared using the incomplete 4×4 matrix design in Table 3.
# (§3) Four test organisms—Salmonella Enteritidis (ATCC 13076), Staphylococcus aureus (ATCC 25923) E. coli O157:H7 (ATCC 35150) and Listeria monocytogenes (ATCC 15313)—were selected for use in these screening assays. […] Propionic acid was obtained from Kemin Americas, Inc (Des Moines, Iowa). S. Enteriditis, S. aureus and E. coli were grown aerobically in either Tryptic Soy Broth (TSB) or Nutrient Broth (NB) for 24 h at 37° C. L. monocytogenes was grown aerobically in Brain Heart Infusion Broth (BHI) for 24 h at 37° C. Test inocula were prepared to achieve a 10^6 cfu/ml suspension of bacterial cells. A Petroff Hausser counting chamber was used to determine the level of inoculum.
# An Optimax microtiter plate reader (Molecular Devices, Sunnyvale, Calif.) at 405 nm wavelength was used to measure the optical density of the suspension in each well. Plates were read kinetically over 24 h. The temperature was maintained at 35° C. All results reflect the average optical density measurements of four microtiter wells. Treatments were prepared in sterile RO at the inclusion levels noted in Tables 1-2. […]
# [3] = tested on: E. coli O157:H7 (ATCC 35150); assay: Microtiter plate assay, CPC and propionic acid, abbreviated 4×4 matrix (Experiment 2); assay type: cell-based
# Method: as §1, §2, §3
# (§4) An Optimax microtiter plate reader (Molecular Devices, Sunnyvale, Calif.) at 405 nm wavelength was used to measure the optical density of the suspension in each well. Plates were read kinetically over 24 h. The temperature was maintained at 35° C. All results reflect the average optical density measurements of four microtiter wells. Treatments were prepared in sterile RO at the inclusion levels noted in Tables 1-2. A 100 μl aliquot of test organism and a 100 μl aliquot of experimental treatment were dispensed into individual microtiter plate wells. […] Positive controls consisting of 100 μl of test organism in NB or BHI and 100 μl of sterile water and a negative control consisting of 100 μl of NB (no organisms) and 100 μl of sterile water were also used.
# [4] = tested on: Listeria monocytogenes (ATCC 15313); assay: as above; assay type: cell-based; details: L. monocytogenes
# Method: as §1, §2, §3, §4
# [5] = tested on: Salmonella Enteritidis (ATCC 13076); assay: Microtiter plate assay, CPC and mixed organic acids (Experiment 3); assay type: cell-based
# Method: (§5) Fifteen formulations were prepared using the incomplete 4×4 matrix design in Table 8.
# (§6) Two test organisms—Salmonella Enteritidis (ATCC 13076) and E. coli O157:H7 (ATCC 35150)—were screened. Salmonella Enteritidis was grown aerobically in Nutrient Broth (NB) for 24 h at 37° C. E. coli was grown in NB for 6 h at 37° C. Test inocula were prepared to achieve a 10^6 cfu/ml suspension of bacterial cells. A Petroff Hausser counting chamber was used to determine the level of inoculum.
# (§7) An Optimax microtiter plate reader (Molecular Devices, Sunnyvale, Calif.) at 405 nm wavelength was used to measure the optical density of the suspension in each well. Plates were read kinetically over 24 h. The temperature was maintained at 35° C. All results reflect the average optical density measurements of four microtiter wells. Treatments were prepared in sterile RO at the inclusion levels noted in Table 1. A 100 μl aliquot of test organism and a 100 μl aliquot of experimental treatment were dispensed into individual microtiter plate wells. Bacteria cultures were diluted in Nutrient Broth (NB) prior to inoculation into the wells. Positive controls consisting of 100 μl of test organism in NB and 100 μl of sterile water and a negative control consisting of 100 μl of NB (no organisms) and 100 μl of sterile water were also used.
# [6] = tested on: E. coli O157:H7 (ATCC 35150); assay: as above; assay type: cell-based
# Method: as §5, §6, §7
# [7] = tested on: Salmonella Enteritidis (ATCC 13076); assay: Microtiter plate assay, CPC and propionic acid, 3×3 matrix (Experiment 2); assay type: cell-based; details: propionic acid alone, previous experimentation
# Method: as §1
# Eight formulations were prepared using the incomplete 3×3 matrix design in Table 2. […] Positive and negative controls were included as described in Experiment 1.
# Propionic acid was obtained from Kemin Americas, Inc (Des Moines, Iowa). S. Enteriditis, S. aureus and E. coli were grown aerobically in either Tryptic Soy Broth (TSB) or Nutrient Broth (NB) for 24 h at 37° C. L. monocytogenes was grown aerobically in Brain Heart Infusion Broth (BHI) for 24 h at 37° C.
# Plates were read kinetically over 24 h. The temperature was maintained at 35° C. […] Treatments were prepared in sterile RO at the inclusion levels noted in Tables 1-2.
# [8] = tested on: Salmonella Enteritidis (ATCC 13076); assay: Microtiter plate assay, CPC and acetic acid (Experiment 4); assay type: cell-based; details: S. Enteritidis, acetic acid treatment alone
# Method: Test inocula were prepared to achieve a 10^6 cfu/ml suspension of bacterial cells. A Petroff Hausser counting chamber was used to determine the level of inoculum.
# as §4, with “Table 1.” for “Tables 1-2.”, “NB” for “NB or BHI”
compound,measurement,setting,value
"C=O [37% formaldehyde, formaldehyde]",MIC,[1],~50 µg/mL
"CCCCCCCCCCCCCCCC[n+]1ccccc1 [CPC, Cetylpyridinium chloride]",propionic acid substituted by 1 ppm CPC,[2],approximately 200 ppm
same,propionic acid substituted by 1 ppm CPC,[3]; E. coli O157:H7,50 ppm
same,propionic acid substituted by 1 ppm CPC,[4],> 200 ppm
same,mixed acids substituted by 1 ppm CPC,[5],50 ppm
same,mixed organic acids substituted by 1 ppm CPC,[6],50 ppm
CCC(=O)O [propionic acid],concentration shown to inhibit growth,"[2]; propionic acid alone, previous experimentation",250 ppm
same,concentration sufficient to inhibit growth,[7],250 ppm
same,concentration that completely inhibited growth,"[3]; E. coli, propionic acid treatment alone",250 ppm
CC(=O)O [acetic acid],concentration that completely inhibited growth,[8],250 ppm
